Results published in patent US11090285B2, “Treatment of circadian rhythm disorders” (Vanda Pharmaceuticals Inc., priority 2013, dated 2021).
Where two headings read alike, the source gives them in different places.

Experiments:
[1] = Effect of smoking on pharmacokinetics of tasimelteon and metabolites; assay type: in vivo, human; parameters: AUC (inf) / AUC(0-inf): concentration or dose not given beside the values; conditions: for AUC (inf), Geometric Mean Ratio / Cmax, Geometric Mean Ratio / t½, Geometric Mean Ratio: Smokers vs Non-Smokers; for half-life: read-out: t½ (converted)
Text: Smokers were defined as those smoking 10 or more cigarettes per day. Non-smokers were defined as those smoking no cigarettes per day.

[2] = Pharmacokinetics on co-administration of tasimelteon and fluvoxamine; assay type: in vivo, human; conditions: for AUC (inf), Geometric Mean Ratio / Cmax, Geometric Mean Ratio / t½, Geometric Mean Ratio: Day 8 vs Day 1; for half-life: read-out: t½ (converted)
Protocol: Twenty-four healthy male or female subjects between the ages of 18 and 55 years of age (inclusive) who were non-smokers with a body mass index (BMI) of ≥18 and ≤35 kg/m2 participated in this open-label, single-sequence study conducted at one site. On day 1, subjects were administered […] of tasimelteon.

[3] = in vivo; cited from earlier work
[4] = human, in vivo, Non-Smokers, read-out: Cmax
[5] = human, in vivo, Smokers (10 or more cigarettes per day), read-out: Cmax
[6] = human, in vivo, Smokers, read-out: Tmax
[7] = both sexes, human, in vivo, Day 1, 5.667 mg tasimelteon alone, read-out: Cmax
[8] = both sexes, human, in vivo, Day 1, 5.667 mg tasimelteon alone, read-out: Tmax
[9] = both sexes, human, in vivo, Day 1, 5.667 mg tasimelteon alone
[10] = Smokers (10 or more cigarettes per day)
[11] = Day 1, 5.667 mg tasimelteon alone
[12] = Day 8, 5.667 mg tasimelteon + 50 mg fluvoxamine

AUC (inf), Geometric Mean Ratio [1] [%] | Cmax, Geometric Mean Ratio [1] [%] | t½, Geometric Mean Ratio [1] [%] | AUC (inf), Geometric Mean Ratio [2] [%] | Cmax, Geometric Mean Ratio [2] [%] | t½, Geometric Mean Ratio [2] [%] | AUC (inf) ([1]; Non-Smokers) [ng·h/mL] | Cmax ([1]; Non-Smokers) [ng/mL] | Tmax ([1]; Non-Smokers) [h] | t½ ([1]; Non-Smokers) [h] | AUC (inf) ([1]; Smokers) [ng·h/mL] | Tmax ([1]; Smokers) [h] | t½ ([1]; Smokers) [h] | Cmax [1, 10] [ng/mL] | AUC (inf) [2, 11] [ng·h/mL] | Cmax [2, 11] [ng/mL] | Tmax [2, 11] [h] | t½ [2, 11] [h] | AUC (inf) [2, 12] [ng·h/mL] | Cmax [2, 12] [ng/mL] | SMILES | other results
81.84 | 84.50 | 94.13 | 126.03 | 68.71 | 248.35 |  |  |  |  |  |  |  |  |  |  |  |  |  |  | CCC(=O)NC[C@@H]1C[C@H]1c1cccc(O)c1CCO [M11] | AUC(0-inf) ([1]; human, in vivo, Non-Smokers): 154 ± 58 ng·h/mL; Cmax [1, 4]: 54.9 ± 15.1 ng/mL; half-life ([1]; human, in vivo, Non-Smokers): 2.14 ± 0.94 h; AUC(0-inf) ([1]; human, in vivo, Smokers): 124 ± 42 ng·h/mL; Cmax [1, 5]: 46.2 ± 11.9 ng/mL; Tmax [1, 6]: 1 h; half-life ([1]; human, in vivo, Smokers): 1.99 ± 0.85 h; Cmax [2, 7]: 15.8 ± 5.4 ng/mL; Tmax [2, 8]: 1 h; half-life [2, 9]: 1.61 ± 0.55 h
84.87 | 115.53 | 73.31 | 274.81 | 92.74 | 241.02 | 679 ± 433 | 108 ± 29 | 1.00 | 3.05 ± 1.73 | 526 ± 193 | 1.00 | 2.11 ± 0.67 | 123 ± 28 | 189 ± 90.8 | 31.0 ± 7.23 | 0.88 | 3.03 ± 1.02 | 435 ± 109.3 | 30.8 ± 17.6 | CCC(=O)NCC1CC1c1cccc2c1C(O)CO2 (stereo not drawn) [M12] | Tmax [2, 12]: 3.00 h; t½ [2, 12]: 7.03 ± 3.27 h
 |  |  |  |  |  |  |  |  |  |  |  |  |  |  |  |  |  |  |  | COc1ccc2[nH]cc(CCNC(C)=O)c2c1 [Melatonin] | Tmax [3]: ≥ 2 h
74.36 | 77.18 | 85.40 | 122.56 | 64.94 | 328.02 |  |  |  |  |  |  |  |  |  |  |  |  |  |  | CCC(=O)NC[C@@H]1C[C@H]1c1cccc(O)c1CC(=O)O [M9] | AUC(0-inf) ([1]; human, in vivo, Non-Smokers): 406 ± 75 ng·h/mL; Cmax [1, 4]: 279 ± 82.8 ng/mL; half-life ([1]; human, in vivo, Non-Smokers): 1.38 ± 0.45 h; AUC(0-inf) ([1]; human, in vivo, Smokers): 315 ± 112 ng·h/mL; Cmax [1, 5]: 230 ± 118 ng/mL; Tmax [1, 6]: 0.75 h; half-life ([1]; human, in vivo, Smokers): 1.15 ± 0.17 h; Cmax [2, 7]: 67.6 ± 19.1 ng/mL; Tmax [2, 8]: 0.5 h; half-life [2, 9]: 1.14 ± 0.29 h
97.31 | 99.49 | 77.51 | 125.05 | 69.31 | 349.81 | 337 ± 94 | 270 ± 71 | 0.50 | 1.18 ± 0.50 | 329 ± 99 | 0.75 | 0.89 ± 0.26 | 272 ± 86 | 106 ± 32.6 | 87.5 ± 24.4 | 0.50 | 1.00 ± 0.30 | 133 ± 32.9 | 63.6 ± 24.6 | CCC(=O)NC[C@@H]1C[C@H]1c1cccc2c1CC(O)O2 (stereo partly drawn) [M13] | Tmax [2, 12]: 0.50 h; t½ [2, 12]: 3.51 ± 1.18 h
42.98 | 60.17 | 65.09 | 944.73 | 264.58 | 243.34 | 22.0 ± 24.2 | 6.18 ± 3.15 | 0.75 | 1.84 ± 1.22 | 9.45 ± 11.88 | 0.75 | 1.13 ± 0.54 | 3.72 ± 1.86 | 4.54 ± 2.39 | 1.20 ± 0.40 | 0.75 | 2.18 ± 0.97 | 42.6 ± 27.3 | 3.20 ± 1.49 | CCC(=O)NCC1CC1c1cccc2c1C(O)CO2 (stereo not drawn) [M14] | Tmax [2, 12]: 4.00 h; t½ [2, 12]: 4.98 ± 1.89 h
